Results as given in US20020062088A1, “System and method for statistical analysis of QT interval as a function of changes in RR interval” (priority 2000, published 2002).
Like-named read-outs stand apart in the source and are kept apart here.

Legend:
humans = details: cited from earlier work
conscious mongrel dog = details: in vivo
Source text: A system for recording electrocardiogram data in accordance with the present invention is broadly shown in FIG. 6 as reference numeral 100. […] The vehicle or test compound may be administered in various ways, including but not limited to orally, intravenously, or subcutaneous.
Heart rate (RR interval) and Lead II ECG data are collected continuously on a beat-to-beat basis at a sampling rate of 1000 Hz to allow for millisecond (ms) resolution. Using the sampled data, the QT interval and preceding RR interval are measured on individual cardiac cycles using commercially available data acquisition and analysis software. The software package used in support of the data presented here was from Gould Inc. (Po-Ne-Mah) subsidiary. This software permits visual validation of the determination of end points used in the calculation of the ECG time intervals. The collection of data is not limited to any particular method. For example, ECG time intervals can be measured using a ECG strip chart recorder. Thus, both manual and electrical data collection is possible with the present invention.
The various treatments with vehicle or compounds are studied in a randomized fashion.
Approximately 250 to 300 consecutive cardiac cycles are analyzed for a pre-dose period and during steady-state compound exposure. This encompasses between three to five minutes of continuous data for each data collection period. […] An asymptotic decaying exponential growth curve fit is used to describe the relationship between QT and RR interval:
QT=A−B*exp(−C*RR/1000) (1)
Equation (1) is used to fit the QT measurements to the preceding RR interval for each separate data set of consecutive cardiac cycles. The data from each sample period for each vehicle or compound dose is fit to the equation using a least squares nonlinear regression method such as, but not limited to, Quasi Gauss-Newton.
The upper 95% confidence limit for the difference of the curves is determined for each of the dose-to-pre-dose comparisons. If the dose curve crosses the 95% limit, the QT and RR values and the direction of crossing is noted.
The analysis of the compound versus vehicle effect on QT is also accomplished by comparisons of the number of prolonged points exceeding the 95% confidence interval of their respective pre-dose curves. The pre-dose curve value represents the least squares estimate of QT at that value of RR. The 95% limits are then used to compare the overall effect of the treatment (compound or vehicle) to that of the pre-dose response. The confidence limits of the two curves are combined (pooled) to determine the standard error of the difference between the pre-dose and post-dose curves. […] The extent of the confidence and prediction limits depends on the overall variability of the data and the values of the coefficients.
The number of pre-dose data that exceed the upper 95% prediction limit (referred to herein as “outliers”) is compared to the number of post-dose data that exceed the limit for each of the time periods. A repeated measures test for significant difference between pre-dose and post-dose outliers is conducted to evaluate an effect. In the case of small but consistent effects, the repeated measures test detects significant differences better than individual tests. […] To minimize the chance of false negatives, β, conventionally known as “Type II errors,” no multiple comparison adjustments are made for the individual tests.
Once the outliers are identified, they are compared to the pre-dose curve to estimate the magnitude of prolongation, ΔQT, above the QT-RR curve fit to the pre-dose data. The magnitude of prolongation is referenced to the curve rather than the upper 95% confidence bound because the curve is the best estimate of the QT-RR functional relationship, regardless of the number of data points.

| Structure (SMILES) | QT prolongation and sudden death in humans (humans) | number and magnitude of the outliers compared to the pre-dose and vehicle response (conscious mongrel dog) | QTc, clinically (humans; human, in vivo) | Treatment crosses pre-dose curve (conscious mongrel dog) | post-dose curve versus pre-dose curve (conscious mongrel dog) | #outliers/total (QT exceeding 95% confidence bounds of pre-dose curve) (conscious mongrel dog; mongrel) | RR at crossing point of post-dose and pre-dose curves (conscious mongrel dog; mongrel) [ms] | mean ΔQT (of QT exceeding 95% confidence bounds of pre-dose curve) (conscious mongrel dog; mongrel) | ΔQT range (of QT exceeding 95% confidence bounds of pre-dose curve) (conscious mongrel dog; mongrel) | QTRR1000 (least squares estimate of QT at RR 1000 ms, mean ± SEM from curve fit) (conscious mongrel dog; mongrel, iv) | QTc, clinically (humans; clinical) |
| --- | --- | --- | --- | --- | --- | --- | --- | --- | --- | --- | --- |
| CC(C)NCC(O)c1ccc(NS(C)(=O)=O)cc1 (stereo not shown) [sotalol] | caused QT prolongation and sudden death |  |  |  |  |  |  |  |  |  |  |
| CC(C)(C)c1ccc(C(O)CCCN2CCC(C(O)(c3ccccc3)c3ccccc3)CC2)cc1 (stereo not shown) [terfenadine] |  | significant increase | clear, dose-dependent increase in QTC |  |  |  |  |  |  |  |  |
| COc1cc(N)c(Cl)cc1C(=O)NC1CCN(CCCOc2ccc(F)cc2)CC1OC (stereo not shown) [cisapride] | caused QT prolongation and sudden death | significant increase |  | Yes:RR = | not significantly greater than the pre-dose curve | 130/324 | 1094 | 12 | 5 - 47 | 240 ± 18 | clear, dose-dependent increase in QTC |
